Measured values: US20110251258A1, “RNAI CONSTRUCTS AND USES THEREOF” (RXi Pharmaceuticals Corporation, priority 2008, published 2011)

Tests used:
[1] = system: PPIB; conditions: for PPIB gene silencing activity (in words): transfection assay as in Example I; for relative expression of PPIB remaining after transfection: HEK293, 48 hour incubation, even at 10 nM, compared to negative control 10837 and UTC; for activity at sub-nano molar concentrations / target gene expression at about 0.1 nM: HEK293, with RISC-Free filler; for EC50: PPIB expression, HEK293, 48 hours after transfection, dose response with RISC-Free filler; for EC50 fold higher than that of the 25-mer dsRNA 10460: from the EC50 table of Example III
Description: Positive and negative controls were also included. As shown and described in FIG. 4, construct prepared from single-stranded polynucleotide 10837 (SEQ ID NO: 6) was used as a negative control. […] This structure, denoted as construct 10460 (5′P-mCmUmCm[…]mAmAmAmA-3′, SEQ ID NO: 7) in this example, contains 2′-O-methyl modified bases on 4 of the outermost positions at both ends of the sequence.
(§1) All constructs were transfected into HEK293 cells using the LIPOFECTAMINE™ RNAiMAX reagent (Invitrogen Corp., Carlsbad, Calif.) according to manufacture's instructions. In brief, RNA was diluted to a 12× concentration and then combined with a 12× concentration of LIPOFECTAMINE™ RNAiMAX to complex. The RNA and transfection reagent were allowed to complex at room temperature for 20 minutes to yield a 6× concentration. While complexing, HEK293 cells were washed, trypsinized and counted. The cells were diluted to a concentration recommended by the manufacturer which was at 1×10^5 cells/ml. When RNA has completed complexing with the RNAiMAX transfection reagent, 20 μl of the complexes were added to the appropriate well of the 96-well plate in triplicate. Cells were added to each well (100 μl volume) to make the final cell count per well at 1×10^4 cells/well. The volume of cells diluted the 6× concentration of complex to 1× which was equal to 50, 25, or 10 nM. Cells were incubated for 48 hours under normal growth conditions. After 48 hour incubation, cells were lysed and gene silencing activity was measured using the Panomics […]™ assay which employs bDNA hybridization technology. The assay was carried out according to manufacturer's instructions.
Active RNAi construct stocks at 100 or 10 μM were used to make a 3 μM working dilution in RNA Buffer (1:33.333 dilution) by mixing 30 μl of a 10 μM stock+70 μl RNA Buffer. Diluted RNAi compound plates were prepared in a 96 well plate of 0.2 mL PCR tubes as follows:
a. 50 nM Condition (dilute RNA compound to 12× or to 600 nM in OptiMEM, Reduced Serum Medium, Invitrogen Corp., Carlsbad, Calif.): • i. Add 80 μl of OptiMEM to each well • ii. Add 20 μl of working stock RNAi compound (3 μM) to each well with OptiMEM
b. 25 nM Condition (dilute RNA to make 12× or to 300 nM in OptiMEM): • i. Add 50 μl of OptiMEM to each well • ii.
c. 10 nM Condition (dilute RNA compound to 12× or to 120 nM in OptiMEM): • i. Add 30 μl of OptiMEM to each well • ii.
A bulk amount of diluted RNAiMAX and LIPOFECTAMINE™ were made as follows:
a. 1,470 μl Opti-MEM+30 μl RNAiMAX
c. Combine RNAiMAX and Opti-MEM, Lipofectamine and Opti-MEM, mix gently.
Diluted RNAiMAX or LIPOFECTAMINE™ (35 μl each) was added to each 0.2 ml PCR well. Then, 35 μl of diluted RNAi compound from the RNA plate (above) was also added to each well. Each well contained enough for duplicates at a given dose. Each reaction mixture was gently mixed by pipetting up and down 3 times. The mixture was allowed to complex for at least 15 minutes at room temperature. Meanwhile, a suspension of cells at 1×10^5 cells/ml was prepared. After 15 minutes, 20 μl of complexed RNAi was added to each tissue-culture treated 96-well using a multi-channel pipettor. The prepared cell suspension was added to each reaction at a final volume of 1×10^4 cells (100 μl of cell suspension) and allowed to incubate for 48 hours at 37° C., 10% CO2.
Constructs 10460 (SEQ ID NO: 7, see above, a 25-bp double-stranded RNA with blunt ends) and 10167.2 (a 21-bp double-stranded RNA) were included as positive controls. Untransfected control (UTC) was included as a negative control. Transfections were performed as in Example I or according to the manufactures' recommendation. Each construct (except for the UTC) was transfected at a final concentration of about 50 nM, 25 nM, 10 nM, 5 nM, and 1 nM.
The RISC-Free filler is a commercially available control.

[2] = system: MAP4K4
Protocol: as §1

Substance | PPIB gene silencing activity (in words) [1] | EC50 [1] [nM] | PPIB silencing potency compared with another construct [1] | other results
SS: G.G.A.A.A.G.A.C.U.G.U.U.C.C.A.A. A.A.A AS: U.U.U.U.U.G.G.A.A.C.A.G.U. [compound 12000, reference compound] | essentially inactive |  |  | 
U.A.G.A.C.U.U.C.C.A.C.A.G.A.I.I.U. I.I.A.A.G.U.C.U.A [compound 11993] |  |  |  | MAP4K4 gene silencing activity (in words) [2]: ineffective
UUUUUGGAACAGUCUUUCCACUGUUCCAAAAA [compound 10833] | can inhibit PPIB expression | 0.599 |  | relative expression of PPIB remaining after transfection [1]: dramatically decrease PPIB expression; activity at sub-nano molar concentrations [1]: remained partially active; target gene expression at about 0.1 nM [1]: at least negative control level; EC50 fold higher than that of the 25-mer dsRNA 10460 [1]: about 60 fold
U.U.U.U.U.G.G.A.A.C.A.G.U.C.U.U. U.C.C.A.C.U.G.U.U.C.C.A.A.A.A.A [compound 11975] |  |  | more potent that those designed based on the 10463 sequence (12003 and 12004) | 
SS: P.mC.mU.mC.mU.U.C.G.G.A.A.A.G. A.C.U.G.U.U.C.C.A.mA.mA.mA.mA AS: U.U.U.U.U.G.G.A.A.C.A.G.U.C.U.U. U.C.C.G.A.A.G.A.G [compound 10460, reference compound] |  | 0.014 | more potent than the dsRNA construct 10463 | 
U.U.A.C.A.C.G.A.U.G.G.A.A.U.U.U. G.C.U.C.C.A.U.C.G.U.G.U.A.A [compound 12004] |  |  | less effective | 
U.U.U.U.U.G.G.A.A.C.A.G.U.C.U.U. U.C.C.U.G.U.U.C.C.A.A.A.A.A [compound 11976] |  |  | more potent that those designed based on the 10463 sequence (12003 and 12004) | 
UUUUUGGAACAGUCUUUCCUGUUCCAAAAA [compound 10834] | can inhibit PPIB expression | 1.54 |  | relative expression of PPIB remaining after transfection [1]: dramatically decrease PPIB expression; activity at sub-nano molar concentrations [1]: remained partially active; target gene expression at about 0.1 nM [1]: at least negative control level; EC50 fold higher than that of the 25-mer dsRNA 10460 [1]: about 110 fold
U.U.A.C.A.C.G.A.U.G.G.A.A.U.U.U. G.C.U.U.U.C.C.A.U.C.G.U.G.U.A.A. [compound 12003] |  |  | less effective | 
